Patent US8367830B2, “Methods for the identification of phosphatidylinositol kinase interacting molecules and for the purification of phosphatidylinositol kinase proteins” (Cellzome AG, priority 2009, dated 2013)

How the values were obtained:
FRAP = FRAP (Homo sapiens, UniProt P42345); test: Kinobeads competition binding, immobilized CZC31207, HeLa/placenta lysate mix; design: endogenous in cells; host or cells: mixed lysate of HeLa cells and placenta; conditions: 10 μM free compound; mixed HeLa and placenta cell lysates
Procedure: (§1) To the first aliquot of cell lysate 10 μM of the free compound (CZC31207) was added and allowed to bind to proteins in the lysate. Then the affinity matrix with the immobilized compound (Example 1) was added to capture proteins that were not interacting with the previously added free compound. Beads were separated from the lysate and bead bound proteins were eluted in SDS sample buffer and subsequently separated by SDS-Polyacrylamide gel electrophoresis (FIG. 4). Suitable gel bands were cut out and subjected to in-gel proteolytic digestion with trypsin. The second lysate aliquot was processed identically, however no free compound was added (DMSO solvent control). Peptides originating from samples 1 and 2 were labeled with iTRAQ reagents (iTRAQ 115 and iTRAQ 117) and the combined samples were analyzed with a nano-flow liquid chromatography system coupled online to a tandem mass spectrometer (LC-MS/MS) experiment followed by iTRAQ reporter ion quantification in the MS/MS spectra (Ross et al., 2004. Mol. Cell. Proteomics 3(12):1154-1169). Further experimental protocols can be found in WO2006/134056 and a previous publication (Bantscheff et al., 2007. Nature Biotechnology 25, 1035-1044).
(§2) Cells were homogenized in a Potter S homogenizer in lysis buffer: 50 mM Tris-HCl, 0.8% NP40, 5% glycerol, 150 mM NaCl, 1.5 mM MgCl2, 25 mM NaF, 1 mM sodium vanadate, 1 mM DTT, pH 7.5. One complete EDTA-free tablet (protease inhibitor cocktail, Roche Diagnostics, 1 873 580) per 25 ml buffer was added. The material was dounced 20 times using a mechanized POTTER S, transferred to 50 ml falcon tubes, incubated for 30 minutes rotating at 4° C. and spun down for 10 minutes at 20,000×g at 4° C. (10,000 rpm in Sorvall SLA600, precooled). The supernatant was transferred to an ultracentrifuge (UZ)-polycarbonate tube (Beckmann, 355654) and spun for 1 hour at 145.000×g at 4° C. […] The supernatant was transferred again to a fresh 50 ml falcon tube, the protein concentration was determined by a Bradford assay (BioRad) and samples containing 50 mg of protein per aliquot were prepared. […]

DNAPK = DNAPK (Homo sapiens, UniProt P78527); test: as above; design: endogenous in cells; host or cells: mixed lysate of HeLa cells and placenta; conditions: 10 μM free compound; mixed HeLa and placenta cell lysates
Procedure: as §1, §2

AurA = biological target: T1, AurA (Homo sapiens, UniProt O14965); test: as above; conditions: 10 μM free compound; mixed HeLa and placenta cell lysates
T1 construct: endogenous in cells; host or cells: mixed lysate of HeLa cells and placenta
Procedure: as §1
(§3) Cells were homogenized in a Potter S homogenizer in lysis buffer: 50 mM Tris-HCl, 0.8% NP40, 5% glycerol, 150 mM NaCl, 1.5 mM MgCl2, 25 mM NaF, 1 mM sodium vanadate, 1 mM DTT, pH 7.5. One complete EDTA-free tablet (protease inhibitor cocktail, Roche Diagnostics, 1 873 580) per 25 ml buffer was added. The material was dounced 20 times using a mechanized POTTER S, transferred to 50 ml falcon tubes, incubated for 30 minutes rotating at 4° C. and spun down for 10 minutes at 20,000×g at 4° C. (10,000 rpm in Sorvall SLA600, precooled). The supernatant was transferred to an ultracentrifuge (UZ)-polycarbonate tube (Beckmann, 355654) and spun for 1 hour at 145.000×g at 4° C. (40.000 rpm in Ti50.2, precooled). The supernatant was transferred again to a fresh 50 ml falcon tube, the protein concentration was determined by a Bradford assay (BioRad) and samples containing 50 mg of protein per aliquot were prepared. The samples were immediately used for experiments or frozen in liquid nitrogen and stored frozen at −80° C.
(§4) Sepharose-beads with the immobilized compound (100 μl beads per pull-down experiment) were equilibrated in lysis buffer and incubated with a cell lysate sample containing 50 mg of protein on an end-over-end shaker (Roto Shake Genie, Scientific Industries Inc.) for 2 hours at 4° C. Beads were collected, transferred to Mobicol-columns (MoBiTech 10055) and washed with 10 ml lysis buffer containing 0.4% NP40 detergent, followed by 5 ml lysis buffer containing 0.2% detergent. To elute bound proteins, 60 μl 2×SDS sample buffer was added to the column. The column was incubated for 30 minutes at 50° C. and the eluate was transferred to a siliconized microfuge tube by centrifugation. Proteins were then alkylated with 108 mM iodoacetamid. Proteins were then separated by SDS-Polyacrylamide electrophoresis (SDS-PAGE).
(§5) Gel-separated proteins were digested in-gel essentially following a previously described procedure (Shevchenko et al., 1996, Anal. Chem. 68:850-858). Briefly, gel-separated proteins were excised from the gel using a clean scalpel, destained twice using 100 μl 5 mM triethylammonium bicarbonate buffer (TEAB; Sigma T7408) and 40% ethanol in water and dehydrated with absolute ethanol. Proteins were subsequently digested in-gel with porcine trypsin (Promega) at a protease concentration of 10 ng/μl in 5 mM TEAB. Digestion was allowed to proceed for 4 hours at 37° C. and the reaction was subsequently stopped using 5 μl 5% formic acid.
(§6) Gel plugs were extracted twice with 20 μl 1% formic acid and three times with increasing concentrations of acetonitrile. Extracts were subsequently pooled with acidified digest supernatants and dried in a vacuum centrifuge. […]

MLKL = biological target: T2, MLKL (Homo sapiens, UniProt Q8NB16); test: as above; conditions: 10 μM free compound; mixed HeLa and placenta cell lysates
T2 construct: endogenous in cells; host or cells: mix of HeLa cell lysate and placenta lysate
T2 sequence (Q8NB16 whole entry): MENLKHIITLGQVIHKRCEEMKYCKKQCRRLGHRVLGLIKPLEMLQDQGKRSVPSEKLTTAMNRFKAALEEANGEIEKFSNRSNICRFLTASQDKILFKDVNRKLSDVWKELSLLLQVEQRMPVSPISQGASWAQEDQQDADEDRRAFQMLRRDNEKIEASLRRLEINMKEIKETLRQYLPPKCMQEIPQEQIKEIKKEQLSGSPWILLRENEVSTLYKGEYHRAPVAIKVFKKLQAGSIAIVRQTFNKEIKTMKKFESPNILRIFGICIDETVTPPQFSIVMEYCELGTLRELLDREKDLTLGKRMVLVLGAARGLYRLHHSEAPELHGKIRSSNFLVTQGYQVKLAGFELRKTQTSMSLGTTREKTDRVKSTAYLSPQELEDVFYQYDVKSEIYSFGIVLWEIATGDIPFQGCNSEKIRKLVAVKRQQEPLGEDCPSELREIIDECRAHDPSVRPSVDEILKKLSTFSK
Procedure: as §1, §3, §4, §5, §6

PIK3Ca = biological target: T3, PIK3Ca (Homo sapiens, UniProt P42336); test: as above; conditions: 10 μM free compound; mixed HeLa and placenta cell lysates
T3 construct: endogenous in cells; host or cells: mix of HeLa cell lysate and placenta lysate
Procedure: as §1, §3, §4, §5, §6

Erk2 = biological target: T4, Erk2 (Homo sapiens, UniProt P28482); test: as above; conditions: 10 μM free compound; mixed HeLa and placenta cell lysates
T4 construct: endogenous in cells; host or cells: mix of HeLa cell lysate and placenta lysate
T4 sequence (P28482 whole entry): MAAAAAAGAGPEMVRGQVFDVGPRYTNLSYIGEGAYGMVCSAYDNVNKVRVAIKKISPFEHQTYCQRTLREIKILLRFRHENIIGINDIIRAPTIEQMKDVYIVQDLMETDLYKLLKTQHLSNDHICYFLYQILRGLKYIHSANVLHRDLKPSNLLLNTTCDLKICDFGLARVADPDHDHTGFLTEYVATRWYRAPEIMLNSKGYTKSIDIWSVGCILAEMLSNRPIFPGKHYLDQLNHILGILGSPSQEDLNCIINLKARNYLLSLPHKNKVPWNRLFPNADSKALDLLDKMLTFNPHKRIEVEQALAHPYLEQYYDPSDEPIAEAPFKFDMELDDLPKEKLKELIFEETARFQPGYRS
Procedure: as §1, §3, §4, §5, §6

TNK1 = biological target: T5, TNK1 (Homo sapiens, UniProt Q13470); test: as above; conditions: 10 μM free compound; mixed HeLa and placenta cell lysates
T5 construct: endogenous in cells; host or cells: mix of HeLa cell lysate and placenta lysate
Procedure: as §1, §3, §4, §5, §6

JNK2 = biological target: T6, JNK2 (Homo sapiens, UniProt P45984); test: as above; conditions: 10 μM free compound; mixed HeLa and placenta cell lysates
T6 construct: endogenous in cells; host or cells: mixed lysate of HeLa cells and placenta
T6 sequence (P45984 whole entry): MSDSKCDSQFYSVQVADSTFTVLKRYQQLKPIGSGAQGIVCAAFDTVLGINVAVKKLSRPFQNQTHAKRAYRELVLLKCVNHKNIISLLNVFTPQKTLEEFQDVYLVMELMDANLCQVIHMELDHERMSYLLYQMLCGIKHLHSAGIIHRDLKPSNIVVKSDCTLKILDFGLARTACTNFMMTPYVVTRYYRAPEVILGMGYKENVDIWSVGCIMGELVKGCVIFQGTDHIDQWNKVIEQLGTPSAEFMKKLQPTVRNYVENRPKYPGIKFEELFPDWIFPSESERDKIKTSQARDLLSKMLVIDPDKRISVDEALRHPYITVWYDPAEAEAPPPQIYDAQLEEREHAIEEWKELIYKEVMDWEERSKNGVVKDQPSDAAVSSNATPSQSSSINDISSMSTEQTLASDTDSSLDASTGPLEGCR
Procedure: as §1, §3, §4, §5, §6

MAP3K6 = biological target: T7, MAP3K6 (Homo sapiens, UniProt O95382); test: as above; conditions: 10 μM free compound; mixed HeLa and placenta cell lysates
T7 construct: endogenous in cells; host or cells: mixed lysate of HeLa cells and placenta
Procedure: as §1, §3, §4, §5, §6

PIK3Cb = PIK3Cb (Homo sapiens, UniProt P42338); test: as above; design: endogenous in cells; host or cells: mix of HeLa cell lysate and placenta lysate; conditions: 10 μM free compound; mixed HeLa and placenta cell lysates
Procedure: as §1, §3
as §4, with “The column was incubated for 30 minutes at 50° C. and the eluate was transferred to a siliconized microfuge tube by centrifugation. Proteins were then alkylated with 108 mM iodoacetamid. Proteins were then separated by SDS-Polyacrylamide electrophoresis (SDS-PAGE).” left out

PIP5K2C = PIP5K2C (Homo sapiens, UniProt Q8TBX8); test: as above; design: endogenous in cells; host or cells: mix of HeLa cell lysate and placenta lysate; conditions: 10 μM free compound; mixed HeLa and placenta cell lysates
Procedure: as §1, §3
as §4, with “The column was incubated for 30 minutes at 50° C. and the eluate was transferred to a siliconized microfuge tube by centrifugation. Proteins were then alkylated with 108 mM iodoacetamid. Proteins were then separated by SDS-Polyacrylamide electrophoresis (SDS-PAGE).” left out

NEK2 = NEK2 (Homo sapiens, UniProt P51955); test: as above; design: endogenous in cells; host or cells: mix of HeLa cell lysate and placenta lysate; conditions: 10 μM free compound; mixed HeLa and placenta cell lysates
Sequence of NEK2 (P51955 whole entry): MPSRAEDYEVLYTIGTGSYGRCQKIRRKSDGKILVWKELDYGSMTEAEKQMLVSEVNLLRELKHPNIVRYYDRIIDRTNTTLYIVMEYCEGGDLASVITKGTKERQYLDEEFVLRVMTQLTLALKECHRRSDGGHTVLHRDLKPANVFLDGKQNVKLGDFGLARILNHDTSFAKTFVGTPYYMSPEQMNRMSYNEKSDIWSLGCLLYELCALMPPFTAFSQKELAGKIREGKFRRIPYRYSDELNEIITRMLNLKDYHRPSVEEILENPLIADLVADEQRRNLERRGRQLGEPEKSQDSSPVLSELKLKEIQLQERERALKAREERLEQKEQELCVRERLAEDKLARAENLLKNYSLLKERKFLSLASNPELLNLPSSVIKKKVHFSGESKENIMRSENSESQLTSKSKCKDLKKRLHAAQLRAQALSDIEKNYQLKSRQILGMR
Procedure: as §1, §3
as §4, with “The column was incubated for 30 minutes at 50° C. and the eluate was transferred to a siliconized microfuge tube by centrifugation. Proteins were then alkylated with 108 mM iodoacetamid. Proteins were then separated by SDS-Polyacrylamide electrophoresis (SDS-PAGE).” left out

PIK3Cg = PIK3Cg (Homo sapiens, UniProt P48736); test: as above; design: endogenous in cells; host or cells: mix of HeLa cell lysate and placenta lysate; conditions: 10 μM free compound; mixed HeLa and placenta cell lysates
Sequence of PIK3Cg (P48736 whole entry): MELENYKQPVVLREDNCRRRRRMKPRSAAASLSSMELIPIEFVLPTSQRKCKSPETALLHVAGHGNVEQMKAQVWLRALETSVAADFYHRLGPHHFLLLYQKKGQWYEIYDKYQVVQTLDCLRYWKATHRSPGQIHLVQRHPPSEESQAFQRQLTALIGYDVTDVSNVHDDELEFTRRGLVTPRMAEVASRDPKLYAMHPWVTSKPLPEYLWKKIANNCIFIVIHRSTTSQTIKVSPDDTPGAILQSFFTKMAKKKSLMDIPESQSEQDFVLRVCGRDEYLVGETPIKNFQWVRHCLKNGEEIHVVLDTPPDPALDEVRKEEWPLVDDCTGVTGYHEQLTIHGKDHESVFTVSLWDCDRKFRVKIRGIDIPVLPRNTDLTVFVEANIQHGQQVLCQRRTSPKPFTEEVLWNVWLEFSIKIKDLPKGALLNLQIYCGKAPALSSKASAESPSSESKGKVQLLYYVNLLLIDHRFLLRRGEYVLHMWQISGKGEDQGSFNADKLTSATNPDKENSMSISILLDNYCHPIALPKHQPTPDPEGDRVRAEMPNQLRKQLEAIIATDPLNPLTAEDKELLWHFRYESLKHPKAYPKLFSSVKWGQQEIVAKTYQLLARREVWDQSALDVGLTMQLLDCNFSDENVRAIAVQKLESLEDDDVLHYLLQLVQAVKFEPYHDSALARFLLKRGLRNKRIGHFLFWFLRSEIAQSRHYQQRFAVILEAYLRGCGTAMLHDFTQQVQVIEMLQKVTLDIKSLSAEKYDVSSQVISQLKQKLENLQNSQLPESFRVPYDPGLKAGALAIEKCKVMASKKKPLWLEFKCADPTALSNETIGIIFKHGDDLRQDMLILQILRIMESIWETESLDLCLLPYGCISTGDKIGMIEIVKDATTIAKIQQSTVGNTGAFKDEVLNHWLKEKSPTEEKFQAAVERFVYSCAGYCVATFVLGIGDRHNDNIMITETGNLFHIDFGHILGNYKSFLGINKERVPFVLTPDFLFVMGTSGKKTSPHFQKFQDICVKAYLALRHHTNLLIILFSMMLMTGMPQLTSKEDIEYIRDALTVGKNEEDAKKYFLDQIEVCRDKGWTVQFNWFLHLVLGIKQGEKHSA
Procedure: as §1, §3
as §4, with “The column was incubated for 30 minutes at 50° C. and the eluate was transferred to a siliconized microfuge tube by centrifugation. Proteins were then alkylated with 108 mM iodoacetamid. Proteins were then separated by SDS-Polyacrylamide electrophoresis (SDS-PAGE).” left out

CaMK2g = CaMK2g (Homo sapiens, UniProt Q13555); test: as above; design: endogenous in cells; conditions: 10 μM free compound; mixed HeLa and placenta cell lysates
Sequence of CaMK2g (Q13555 whole entry): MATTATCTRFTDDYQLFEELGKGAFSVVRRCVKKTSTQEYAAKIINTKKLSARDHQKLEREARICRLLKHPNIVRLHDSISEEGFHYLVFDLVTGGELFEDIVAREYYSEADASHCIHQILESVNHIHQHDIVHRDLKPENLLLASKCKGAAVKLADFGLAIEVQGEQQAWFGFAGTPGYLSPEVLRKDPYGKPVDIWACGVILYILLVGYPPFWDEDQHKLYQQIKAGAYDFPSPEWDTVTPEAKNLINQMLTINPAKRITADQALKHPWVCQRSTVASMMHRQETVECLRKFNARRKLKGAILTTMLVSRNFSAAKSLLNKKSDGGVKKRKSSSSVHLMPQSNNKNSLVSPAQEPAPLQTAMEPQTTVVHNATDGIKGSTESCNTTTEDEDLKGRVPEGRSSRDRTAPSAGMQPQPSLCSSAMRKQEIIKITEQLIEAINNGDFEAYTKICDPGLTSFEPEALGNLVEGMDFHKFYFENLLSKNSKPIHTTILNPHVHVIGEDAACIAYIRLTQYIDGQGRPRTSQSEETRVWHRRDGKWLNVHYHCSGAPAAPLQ
Procedure: as §1, §3
as §4, with “The column was incubated for 30 minutes at 50° C. and the eluate was transferred to a siliconized microfuge tube by centrifugation. Proteins were then alkylated with 108 mM iodoacetamid. Proteins were then separated by SDS-Polyacrylamide electrophoresis (SDS-PAGE).” left out

PIK4Ca = PIK4Ca (Homo sapiens, UniProt P42356); test: as above; design: endogenous in cells; conditions: 10 μM free compound; mixed HeLa and placenta cell lysates
Procedure: as §1, §3
as §4, with “The column was incubated for 30 minutes at 50° C. and the eluate was transferred to a siliconized microfuge tube by centrifugation. Proteins were then alkylated with 108 mM iodoacetamid. Proteins were then separated by SDS-Polyacrylamide electrophoresis (SDS-PAGE).” left out

BCKDK [1] = biological target: T8, BCKDK (Homo sapiens, UniProt O14874); test: as above; design: endogenous in cells; conditions: 10 μM free compound; mixed HeLa and placenta cell lysates
Procedure: as §1, §3
as §4, with “The column was incubated for 30 minutes at 50° C. and the eluate was transferred to a siliconized microfuge tube by centrifugation. Proteins were then alkylated with 108 mM iodoacetamid. Proteins were then separated by SDS-Polyacrylamide electrophoresis (SDS-PAGE).” left out

MAP3K1 [2] = biological target: T9, MAP3K1 (Homo sapiens, UniProt Q13233); test: as above; design: endogenous in cells; conditions: 10 μM free compound; mixed HeLa and placenta cell lysates
T9 sequence (Q13233 whole entry): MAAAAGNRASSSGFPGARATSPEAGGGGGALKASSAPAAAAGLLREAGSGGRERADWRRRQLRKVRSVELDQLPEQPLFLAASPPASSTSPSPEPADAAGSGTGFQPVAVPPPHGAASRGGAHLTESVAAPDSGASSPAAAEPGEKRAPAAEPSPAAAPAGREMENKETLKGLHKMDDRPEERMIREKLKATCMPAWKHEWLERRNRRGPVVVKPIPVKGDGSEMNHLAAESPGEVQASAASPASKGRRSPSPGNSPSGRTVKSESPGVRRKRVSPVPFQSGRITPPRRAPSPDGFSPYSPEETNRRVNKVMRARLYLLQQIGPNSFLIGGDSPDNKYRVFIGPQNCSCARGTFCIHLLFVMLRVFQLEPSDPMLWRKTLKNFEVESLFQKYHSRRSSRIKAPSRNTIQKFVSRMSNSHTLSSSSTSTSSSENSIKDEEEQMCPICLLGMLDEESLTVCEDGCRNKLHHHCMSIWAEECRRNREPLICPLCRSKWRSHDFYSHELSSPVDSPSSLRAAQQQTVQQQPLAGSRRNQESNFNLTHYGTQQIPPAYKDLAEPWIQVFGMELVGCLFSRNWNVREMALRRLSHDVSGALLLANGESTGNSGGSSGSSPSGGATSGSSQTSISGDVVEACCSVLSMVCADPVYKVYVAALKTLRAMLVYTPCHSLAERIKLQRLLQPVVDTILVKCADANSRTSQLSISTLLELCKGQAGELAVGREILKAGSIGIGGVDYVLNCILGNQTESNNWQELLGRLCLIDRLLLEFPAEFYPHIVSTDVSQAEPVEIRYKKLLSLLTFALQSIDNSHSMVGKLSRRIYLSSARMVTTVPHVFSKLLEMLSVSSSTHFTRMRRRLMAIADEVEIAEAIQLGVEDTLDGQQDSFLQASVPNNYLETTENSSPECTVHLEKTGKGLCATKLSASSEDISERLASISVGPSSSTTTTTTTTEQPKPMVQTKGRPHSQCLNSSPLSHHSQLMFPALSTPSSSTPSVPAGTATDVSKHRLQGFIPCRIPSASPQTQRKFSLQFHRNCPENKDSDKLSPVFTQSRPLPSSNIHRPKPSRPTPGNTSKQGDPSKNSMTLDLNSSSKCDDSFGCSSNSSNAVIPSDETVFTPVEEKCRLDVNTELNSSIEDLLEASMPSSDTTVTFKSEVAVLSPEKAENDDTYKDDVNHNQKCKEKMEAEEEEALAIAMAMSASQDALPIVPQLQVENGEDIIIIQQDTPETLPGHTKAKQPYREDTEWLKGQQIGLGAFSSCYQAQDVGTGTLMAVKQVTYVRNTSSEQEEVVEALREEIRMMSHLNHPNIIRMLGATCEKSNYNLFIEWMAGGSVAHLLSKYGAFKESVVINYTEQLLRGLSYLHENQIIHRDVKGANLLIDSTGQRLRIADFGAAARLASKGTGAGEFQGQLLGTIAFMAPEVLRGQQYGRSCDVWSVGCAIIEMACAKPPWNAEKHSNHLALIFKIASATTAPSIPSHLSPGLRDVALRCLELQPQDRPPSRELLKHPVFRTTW
Procedure: as §1, §3
as §4, with “The column was incubated for 30 minutes at 50° C. and the eluate was transferred to a siliconized microfuge tube by centrifugation. Proteins were then alkylated with 108 mM iodoacetamid. Proteins were then separated by SDS-Polyacrylamide electrophoresis (SDS-PAGE).” left out

BCKDK [3] = biological target: T8, BCKDK; test: Kinobeads competition binding, immobilized CZC31207, Jurkat/Ramos lysate mix; design: endogenous in cells; host or cells: mixed lysate of Jurkat and Ramos cells; conditions: 10 μM free compound; mix of Jurkat and Ramos cell lysates
Procedure: (§7) To the first aliquot of cell lysate 10 μM of the free compound CZC31207 was added and allowed to bind to proteins in the lysate. Then the affinity matrix with the immobilized compound was added to capture proteins that were not interacting with the previously added free compound. Beads were separated from the lysate and bead bound proteins were eluted in SDS sample buffer and subsequently separated by SDS-Polyacrylamide gel electrophoresis (FIG. 5). Suitable gel bands were cut out and subjected to in-gel proteolytic digestion with trypsin. The second lysate aliquot was processed identically, however no free compound was added (DMSO solvent control). Peptides originating from samples 1 and 2 were labeled with iTRAQ reagents (iTRAQ 114 and iTRAQ 116) and the combined samples were analyzed with a nano-flow liquid chromatography system coupled online to a tandem mass spectrometer (LC-MS/MS) experiment followed by iTRAQ reporter ion quantification in the MS/MS spectra as described in Example 2.
(§8) Jurkat cells (ATCC number T1B-152) and Ramos cells (ATCC number CRL-1596) were either obtained from an external supplier (CIL SA, Mons, Belgium) or grown in one litre Spinner flasks (Integra Biosciences, #182101) in suspension in RPMI 1640 medium (Invitrogen, #21875-034) supplemented with 10% Fetal Bovine Serum (Invitrogen, #10270-106) at a density between 0.2×10^6 and 1.0×10^6 cells/ml. […]

MAP3K1 [4] = biological target: T9, MAP3K1; test: as above; design: endogenous in cells; host or cells: mixed lysate of Jurkat and Ramos cells; conditions: 10 μM free compound; mix of Jurkat and Ramos cell lysates
Procedure: as §7, §8

Competition % FRAP (FRAP): 25.9% | Competition % DNAPK (DNAPK): 35.3% | Competition % AurA (AurA): 12.8% | Competition % MLKL (MLKL): 34.2% | Competition % PIK3Ca (PIK3Ca): 68.6% | Competition % Erk2 (Erk2): −2.9% | Competition % TNK1 (TNK1): −1.9% | Competition % JNK2 (JNK2): 24.6% | Competition % MAP3K6 (MAP3K6): 10.3% | Competition % PIK3Cb (PIK3Cb): 85.6% | Competition % PIP5K2C (PIP5K2C): 78.3% | Competition % NEK2 (NEK2): 40.4% | Competition % PIK3Cg (PIK3Cg): 80% | Competition % CaMK2g (CaMK2g): 15.2% | Competition % PIK4Ca (PIK4Ca): 39.9% | Competition % BCKDK (BCKDK [1]): 8% | Competition % MAP3K1 (MAP3K1 [2]): 13.3% | Competition % BCKDK (BCKDK [3]): −0.1% | Competition % MAP3K1 (MAP3K1 [4]): 14.1%
Compound: CC(C)NS(=O)(=O)c1cncc(-c2ccc3nc(NC(=O)NCCN)nn3c2)c1 [CZC31207, 5-(2-(3-(2-aminoethyl)ureido)-[1,2,4]triazolo[1,5-a]pyridin-6-yl)-N-isopropylpyridine-3-sulfonamide]
